Measurements reported in patent publication US12559487B2, “Crosslinked optically active secondary amine derivative” (Sumitomo Pharma Co., Ltd., priority 2019, dated 2026).
pIC50: −log10 of the molar value.

What was measured:
MV4; 11 cells = assay: Test 1: Test for evaluating the inhibition of cell proliferation; assay type: cell-based; conditions: cultured for 7 days, PrestoBlue cell viability
Experimental: MV4; 11 cells were obtained from American Type Culture Collection (ATCC). The cells were cultured at 37° C. in the presence of 5% CO2 in RPMI 1640 medium containing 10% fetal bovine serum and 1% penicillin/streptomycin.
The cells were plated to a 96-well plate in 2000 cells/well, each test compound was added thereto to adjust the final concentration of DMSO to 0.1% of DMSO, and the cells were cultured for 7 days. After the cultivation, the cell viability was calculated with PrestoBlue™ Cell Viability Reagent (Invitrogen, A13261).

[1] = molecular target: hERG (human Ether-a-go-go Related Gene) (Homo sapiens (Human), UniProt Q12809)
Chain of hERG (human Ether-a-go-go Related Gene) (Q12809 whole entry): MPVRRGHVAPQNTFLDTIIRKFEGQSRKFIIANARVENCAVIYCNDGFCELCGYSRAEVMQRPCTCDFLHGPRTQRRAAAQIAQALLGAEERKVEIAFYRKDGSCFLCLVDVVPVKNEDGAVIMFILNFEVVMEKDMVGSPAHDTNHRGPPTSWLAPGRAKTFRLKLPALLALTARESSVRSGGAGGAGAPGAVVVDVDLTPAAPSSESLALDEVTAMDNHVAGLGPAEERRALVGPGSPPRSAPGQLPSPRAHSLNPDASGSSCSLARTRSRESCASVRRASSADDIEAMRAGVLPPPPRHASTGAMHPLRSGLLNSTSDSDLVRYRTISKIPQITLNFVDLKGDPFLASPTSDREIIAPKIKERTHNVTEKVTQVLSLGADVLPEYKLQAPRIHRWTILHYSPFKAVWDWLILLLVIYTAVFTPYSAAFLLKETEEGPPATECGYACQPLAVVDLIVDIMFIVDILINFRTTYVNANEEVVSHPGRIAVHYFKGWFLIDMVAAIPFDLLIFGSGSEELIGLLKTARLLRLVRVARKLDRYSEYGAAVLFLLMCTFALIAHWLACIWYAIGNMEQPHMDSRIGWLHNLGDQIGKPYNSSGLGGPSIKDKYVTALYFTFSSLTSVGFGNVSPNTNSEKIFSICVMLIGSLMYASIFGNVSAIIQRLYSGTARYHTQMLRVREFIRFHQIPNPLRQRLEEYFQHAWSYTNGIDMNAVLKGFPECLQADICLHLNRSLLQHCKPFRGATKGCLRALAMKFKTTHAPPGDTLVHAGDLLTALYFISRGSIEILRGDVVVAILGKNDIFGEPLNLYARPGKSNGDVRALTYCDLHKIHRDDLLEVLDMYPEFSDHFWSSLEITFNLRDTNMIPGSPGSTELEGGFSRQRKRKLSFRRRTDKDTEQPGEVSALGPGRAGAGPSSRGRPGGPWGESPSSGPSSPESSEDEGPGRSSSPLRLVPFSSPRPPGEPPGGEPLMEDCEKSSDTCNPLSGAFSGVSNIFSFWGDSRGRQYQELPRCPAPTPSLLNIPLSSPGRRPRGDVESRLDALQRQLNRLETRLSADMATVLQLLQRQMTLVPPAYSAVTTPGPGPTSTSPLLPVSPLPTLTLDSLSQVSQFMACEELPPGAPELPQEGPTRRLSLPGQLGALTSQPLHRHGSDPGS

## 5-fluoro-N-methyl-2-(3-{1-[(1S,3S,4R)-5-methylidene-2-azabicyclo[2.2.1]heptane-3-carbonyl]azepan-4-yl}-1H-pyrrolo[2,3-c]pyridin-1-yl)-N-(propan-2-yl)benzamide [Example 13]
MV4; 11 cells
  pIC50: 6.89
[1]
  hERG/MV4; 11: 198

## (3S)—N-[(1S)-3-(1-{4-fluoro-2-[methyl(propan-2-yl)carbamoyl]phenyl}-1H-pyrrolo[2,3-c]pyridin-3-yl)cyclohexyl]-2-azabicyclo[2.2.2]octane-3-carboxamide [Example 30]
MV4; 11 cells
  pIC50: 6.26
[1]
  hERG/MV4; 11: 13
